Literature values in publication PMC9010276 (Clinical and Translational Science, 2021).
Read-outs that look alike come from different tables or passages of the source.

Key:
[1] = studies with registered drugs

| SMILES | Skin rash after administration (after multiple dosing at higher dose levels) | Analgesic effects on experimental pain tests [1] | Skin rash after administration (nonselective Nav inhibitors) |
| --- | --- | --- | --- |
| Nc1[nH]ncc1-c1cc(Cl)ccc1Oc1cc(F)c(S(=O)(=O)Nc2cscn2)cc1Cl [PF‐05089771] | mild skin rash |  |  |
| COC[C@@H](NC(C)=O)C(=O)NCc1ccccc1 [lacosamide] |  | limited and variable analgesic effects |  |
| CCN(CC)CC(=O)Nc1c(C)cccc1C [lidocaine] |  | limited and variable analgesic effects |  |
| Cc1cccc(C)c1OCC(C)N (stereo not drawn) [mexiletine] |  | limited and variable analgesic effects | mild skin rash |
| O=C1NC(=O)C(c2ccccc2)(c2ccccc2)N1 [phenytoin] |  |  | mild skin rash |
